The source of these data is article PMC8894198, “Biosynthetic Microcin J25 Exerts Strong Antibacterial, Anti-Inflammatory Activities, Low Cytotoxicity Without Increasing Drug-Resistance to Bacteria Target” (Frontiers in Immunology, 2022).

“Also recorded” adds a separate entry of the source. Where a SMILES comes first, the peptide text is derived from it. Bridges are numbered along the chain shown (N, C = ends).

Data set [1] has as its system E. coli K88. Type of data set: cell-based. The note with it: sublethal levels, daily sequential passages. As to the method: To quantify the production status of the bacteria, the bacterial density was measured after incubating for 24 h. Cultures with the second highest concentration allowed to grow (OD600 ≥ 2) were diluted 1:100 with MccJ25 MHB at different concentrations than those described above. Cultures that grew above the indicated MIC levels were plated on LB agar plates, and their MIC levels were determined by the broth macrodilution method.

In data set [2] the test system is E. coli K88. The data set can be described thus: MIC variability (cross-resistance) after 5 days at sub-MIC. The format is cell-based. The note with it: after culture under ampicillin (0.25 × MIC) for 5 days. As to the method:
A 1:100 dilution of the bacteria was performed daily in the above MHB. Aliquots of the culture medium were used daily for 5 days thereafter to determine the MICs of ampicillin, tetracycline, aureomycin, and kanamycin. This study was performed based on our previous study ([29]).

A short description of data set [3]: in vitro. The protocol:
(§1) The resistance of MccJ25 to pepsin, trypsin and chymotrypsin was evaluated based on previous studies ([26]), with minor modifications. E. coli K88 cells were prepared (approximately 1 × 10^7 CFU/mL), and 1 mL of the bacterial suspension and MccJ25 were transferred into 9 mL of medium. For the control, MccJ25 was not added. LB agar inoculated with E. coli K88 cells (~10^5 viable cells/mL) was poured onto a plate containing an Oxford cup to form individual wells. Then, 2 and 4 h MccJ25 (1 × MIC) previously subjected to different treatments were added to the wells. The agar overlay was incubated overnight at 37°C, and the diameter of the growth inhibition zone was measured.
(§2) Figure 3 Stability and activity of MccJ25 in different conditions and biological fluids. Various concentration of MccJ25 was incubated with different temperatures (A), pH values (B), (C) SIF, SGF, and serum. Proteases (D-F) for different indicated times. Afterwards, the amount of the remaining MccJ25 was determined by RP-HPLC. […] NE: negative control; Chy: chymotrypsin. […] Effects of temperature (G), RT: room temperature, pH values (H), proteases (I), SGF (J), SIF (K), and serum (L) on the inhibition of E coli K88 by MccJ25. The zone of inhibition is often used to clarify the antimicrobial activity of MccJ25. […] Chy refers to chymotrypsin. Data are presented as the mean of 6 biological replicates ± standard error of mean form.

The subject of a further data set is chymotrypsin. The data set can be described thus: in vitro. To be noted: RP-HPLC. The protocol:
as §1, §2

The conditions of data set [4]: remaining peptide by RP-HPLC, n = 6. The protocol: as §2
Data set [5] concerns RAW264.7 cells. The note with it: 2 to 512 μg/mL MccJ25, 24 h, 37°C; n = 6. As to the method:
(§3) Certain adjustments were made to Dulbecco’s modified Eagle’s medium (DMEM), i.e., 20% fetal bovine serum (FBS) was added, and human colon cancer cell line Caco-2 and murine cell line macrophage RAW264.7 cells were inoculated into the adjusted medium, with the inoculum density maintained at 2 × 10^4 cells/mL, placed in 96-well plates until the overall confluence ratio reached 80% to 90%, respectively.
(§4) The secretion of the cell membrane enzyme lactate dehydrogenase (LDH) was measured on the basis of a colorimetric assay. Caco-2 and RAW264.7 cells (2 × 10^4 cells/well) as controls without or with concentrations of 2 to 512 μg/mL MccJ25 were incubated for 24 h at 37°C in 5% CO2. A simple step was to transfer 100 μL of cell culture medium from each well to a new 96-well plate and measure the activity of LDH based on the LDH cytotoxicity assay kit (Clontech, Mountain View, CA, USA) according to the manufacturer’s instructions. The catalyst and dye solutions were mixed well and added to the wells containing cell culture medium and then incubated for 30 min at room temperature. The absorbance at 490 and 670 nm was measured with a microplate reader (Model SynergyMx, BioTek, Winooski, VT, USA). Absorbance values were corrected by subtracting the […].

For data set [6], the system named is Caco-2 cells. To be noted: 2 to 512 μg/mL MccJ25, 24 h, 37°C; n = 6. As to the method: as §3, §4
The conditions of data set [7]: RP-HPLC. As to the method: (§5) The simulated gastric fluid (SGF) and simulated intestinal fluid (SIF) were mainly based on the relevant contents of the Chinese Pharmacopoeia as described previously ([26]). SGF was configurated with 10 mg/mL pepsin, 0.03 M NaCl was used to blend the pH to 1.5, while SIF was configured with 10 mg/mL trypsin, 0.05 M KH2PO4 was used to blended pH as 7. SGF and SIF were then measured separately, and the antimicrobial activity of MccJ25 in serum was determined. E. coli K88 cells were grown in MHB (Difco Laboratories, Detroit, MI, USA). In short, 1 mL of the bacterial suspension and MccJ25 were transferred into 9 mL of medium. The control group was as follows: no MccJ25 was added to it. E. coli K88 cells with a live cell count maintained at approximately 10^5 cells per milliliter were inoculated on LB agar, which was then poured into plates equipped with Oxford cups, thus forming wells. Then, MccJ25 (1 × MIC) previously treated with SGF, SIF and serum for 2, 4, and 6 h was added to these wells. One of the agar substances covering the wells needs to be incubated overnight at 37°C, and finally, the size of its growth inhibition area, i.e., the diameter, needs to be determined.
Figure 3 Stability and activity of MccJ25 in different conditions and biological fluids. […] Afterwards, the amount of the remaining MccJ25 was determined by RP-HPLC. […]

In the next data set the test system is IPEC-J2 cells. To be noted: previous study; ref [29]; cited from earlier work. The text has this:
Microcins, AMPs, are a large class of antimicrobial agents that can be employed in the treatment of various infectious diseases. […] Cytotoxicity, including the hemolysis of erythrocytes, is one of the main factors limiting the practical application of AMPs. Therefore, it is crucial to have a clear understanding of the c ...

Data set [8] is described as follows: in vitro. As to the method: as §5, §2
The source holds these as a separate data set.

The subject of data set [9] is RAW264.7 cells. In words: MTT cytotoxicity assay. The format is cell-based, murine. To be noted: different concentrations of MccJ25 up to 512 μg/mL, 24 h, 37°C; vs control; n = 6. As to the method: (§6) To test whether MccJ25 could have an effect on the metabolic activity of the cells, the necessary MTT assay was performed (Roche Molecular Biochemistry, Mannheim, Germany) as previously described ([28], [29]). The whole operation process can be briefly summarized as follows: first, various concentration gradients of MccJ25 solution were added, the ambient temperature of the cell secondary incubation was maintained at 37°C, the CO2 concentration was maintained at 5%, and the incubation time needed to reach 24 h. The control group was the cells without any treatment. Afterwards, 20 μL of MTT solution (concentration 5 mg/mL, medium DPBS) was added to all wells and incubated for 3.5 h at a temperature of 37°C and a CO2 concentration of 5%. Components of the medium were removed by centrifugation, and the MTT metabolites were resuspended in 200 μL of dimethyl sulfoxide. The absorbance value at 560 nm was measured, and the background value was the absorbance at 670 nm, which needed to be subtracted from the background value to obtain the absorbance value.
(In general: Tetrazolium assays rely on reduction of a dye to a coloured formazan, in cell work by metabolically active cells.)

The subject of data set [10] is mouse erythrocytes (mRBCs). To be noted: 512 μg/mL (highest concentration), 8% RBCs in PBS, 37°C, 1 h, A414. The protocol:
(§7) Fresh mouse/pig erythrocytes (mRBCs/pRBCs) were collected from well-grown animals, centrifuged at 4,200 rpm and washed well with phosphate-buffered saline (PBS) to ensure that their supernatants were free of impurities and remained clear. The liquid was added to the 96-well plate after 2-fold dilution of MccJ25 prepared with PBS, and the final concentration of RBCs was introduced at 8%. The plate was stirred less vigorously to homogenize the liquid and incubated at 37°C for 1 h. The supernatant was then centrifuged at 4,500 rpm for 10 min, and its absorbance value at 414 nm was measured. Three replicate groups were set up for all the above experiments, and the percentage hemolysis was calculated as follows: percentage hemolysis = [(A414 in peptide solution - A414 in PBS)/(A414 in […] - A414 in PBS)]. ×100, where 100% hemolysis refers to the absorbance of RBCs exposed to 1% Triton X-100 in the environment and 0% hemolysis refers to the absorbance of RBCs exposed to PBS. The positive control used in this experiment was melittin.

The test system of another data set is pig erythrocytes (pRBCs). To be noted: 512 μg/mL (highest concentration), 8% RBCs in PBS, 37°C, 1 h, A414. As to the method:
as §7

The test system of data set [11] is Caco-2 cells. The data set can be described thus: MTT cytotoxicity assay. Type of data set: cell-based, human. To be noted: different concentrations of MccJ25 up to 512 μg/mL, 24 h, 37°C; vs control; n = 6. The protocol: as §6

Consider `CN(C)[C@@H]1C(O)=C(C(N)=O)C(=O)[C@@]2(O)C(O)=C3C(=O)c4c(O)cccc4[C@@](C)(O)[C@H]3C[C@@H]12` [tetracycline], for which the “time of serial passage until resistance” value in the data set with E. coli K88 [1] is reported as ≤ 3 days. Also, in the data set on E. coli K88 [2], the “elevation of the MIC of the antibiotic” value came out at 2 fold.

For `O=C(O)c1cn(C2CC2)c2cc(N3CCNCC3)c(F)cc2c1=O` [ciprofloxacin], the “elevation of the MIC of the antibiotic” value in the data set with E. coli K88 [2] came out at 2 fold.

Consider `CC1(C)S[C@@H]2[C@H](NC(=O)[C@H](N)c3ccccc3)C(=O)N2[C@H]1C(=O)O` [ampicillin], for which the “time of serial passage until resistance” value in the data set on E. coli K88 [1] was ≤ 4 days. The “elevation of the MIC of the antibiotic” value in the data set on E. coli K88 [2] is recorded as 2 fold.

Turning to `NC[C@H]1O[C@H](O[C@H]2[C@H](O)[C@@H](O[C@H]3O[C@H](CO)[C@@H](O)[C@H](N)[C@H]3O)[C@H](N)C[C@@H]2N)[C@H](O)[C@@H](O)[C@@H]1O` [kanamycin], the “elevation of the MIC of the antibiotic” value in the data set on E. coli K88 [2] came to 2 fold.

A word on the amount remaining: it is the share of the starting amount still present when the sample was taken. Higher therefore signals greater stability. As a reminder, the half-life is the time needed for the level to fall by half in the phase considered. Consider `CC[C@H](C)[C@H](NC(=O)CNC(=O)[C@@H](NC(=O)[C@H](Cc1ccccc1)NC(=O)[C@H](Cc1ccc(O)cc1)NC(=O)[C@@H]1CCC(=O)NCC(=O)NCC(=O)N[C@@H](C)C(=O)NCC(=O)N[C@@H](Cc2cnc[nH]2)C(=O)N[C@@H](C(C)C)C(=O)N2CCC[C@H]2C(=O)N1)C(C)C)C(=O)NCC(=O)N[C@H](C(=O)N1CCC[C@H]1C(=O)N[C@H](C(=O)N[C@@H](CO)C(=O)N[C@@H](Cc1ccccc1)C(=O)N[C@@H](Cc1ccc(O)cc1)C(=O)NCC(=O)O)[C@@H](C)CC)[C@@H](C)O` [MccJ25, microcin J25] (GGAGHVPEYFVGIGTPISFYG-OH; lactam N-8), for which the metabolised at 1 h in “in vitro [3]” (chymotrypsin (isolated protease)) worked out at 70%. For the same compound, the fraction remaining at 6 h in “in vitro [3]” (pepsin (isolated protease)) and in the data set “in vitro [3]” (trypsin (isolated protease)) was > 70% throughout. The “level of intact MccJ25 exposed to chymotrypsin” value in the data set on chymotrypsin (2 and 4 h) is on record as “below the detection limit”. In the data set on chymotrypsin (after 6 h), the “intact MccJ25 after exposure to chymotrypsin” value is “below the detection limit”. Also, the “stability of intact MccJ25 at high temperature” value in [4] (121°C, 20 min) is “able to maintain its own steady state”. Moreover, the “stability of intact MccJ25 at different pH” value in data set [4] (pH 2.0 to 9.0, 2 h) is “able to maintain its own steady state”. For the same compound, the “LDH activity (plasma membrane integrity)” value with RAW264.7 cells [5] and in the data set on Caco-2 cells [6] was “did not stimulate LDH activity” each time. Moreover, the “intact MccJ25 after 6 h of incubation in SGF” value in data set [7] (SGF pH 1.5, 10 mg/mL pepsin, 6 h) is reported as “still present”. In data set [7] (SGF: 10 mg/mL pepsin, 0.03 M NaCl, pH 1.5, up to 6 h, n = 6), the “concentration of intact MccJ25 in SGF” value was “decreased slowly”. Moreover, in the data set with IPEC-J2 cells, the cytotoxicity entry was “not cytotoxic”. In the data set “in vitro [8]” (6 h, RP-HPLC), the “intact MccJ25 after 6 h of incubation in serum” value is given as “still present”. Also, in the data set “in vitro [8]” (SIF pH 7, 10 mg/mL trypsin, 6 h, RP-HPLC), the “intact MccJ25 after 6 h of incubation in SIF” value is recorded as “still present”. The half-life in “in vitro [8]” (mouse, serum) is 240 min; in the data set “in vitro [8]” (simulated intestinal fluid (SIF) with 10 mg/mL trypsin, pH 7), 120 min. Also, the “cell viability (MTT)” value in the data set with RAW264.7 cells [9] and in the data set on Caco-2 cells [11] was “nontoxic; also recorded: no significant differences in cell survival” throughout. Moreover, the hemolysis in [10] is given as 4.16%; in the data set on pig erythrocytes (pRBCs) it was 4.07%.
